# Measured values as given in PubChem BioAssay (NCI).
#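 Cells were grown in 96-well plates and exposed to each compound for 48 hours at five concentrations; endpoints were interpolated linearly between bracketing concentrations, or set to the highest concentration if not reached. GI50: concentration for 50% inhibition of growth. TGI denotes the concentration required for complete inhibition of growth.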
# Assays:
# Test in all cases: NCI-60 cell line screen, 48 h
# [1] = tested on: ACHN renal
# [2] = tested on: HCC-2998 colon
# [3] = tested on: NCI-H460 lung
# [4] = tested on: MOLT-4 leukemia
# [5] = tested on: LOX IMVI melanoma
# [6] = tested on: OVCAR-8 ovarian
# [7] = tested on: CCRF-CEM leukemia
# [8] = tested on: UACC-62 melanoma
# [9] = tested on: HOP-92 NSCLC
# [10] = tested on: K-562 leukemia
# [11] = tested on: RXF 393 renal
# [12] = tested on: NCI-H226 lung
# [13] = tested on: M14 melanoma
# [14] = tested on: MCF7 breast
# [15] = tested on: BT-549 breast
# [16] = tested on: HCT-116 colon
# [17] = tested on: TK-10 renal
# [18] = tested on: 786-0 renal
# [19] = tested on: SW-620 colon
# [20] = tested on: PC-3 prostate
# [21] = tested on: CAKI-1 renal
# [22] = tested on: SR leukemia
# [23] = tested on: SK-MEL-28 melanoma
# [24] = tested on: EKVX NSCLC
# [25] = tested on: SNB-19 CNS
# [26] = tested on: SK-MEL-5 melanoma
# [27] = tested on: SF-295 CNS
structure (smiles),measurement,setting,value
COc1ccc(-c2oc3cc(O)cc(O)c3c(=O)c2OC)cc1O,GI50,[1],1250 nM
same,TGI,[1],> 16500 nM
same,GI50,[2],4630 nM
same,TGI,[2],> 16500 nM
same,GI50,[3],663 nM
same,TGI,[3],> 16500 nM
same,GI50,[4],743 nM
same,TGI,[4],> 16500 nM
same,GI50,[5],1020 nM
same,TGI,[5],> 16500 nM
same,GI50,[6],1030 nM
same,TGI,[6],> 16500 nM
same,GI50,[7],853 nM
same,TGI,[7],> 16500 nM
same,GI50,[8],880 nM
same,TGI,[8],> 16500 nM
same,GI50,[9],855 nM
same,TGI,[9],> 16500 nM
same,GI50,[10],613 nM
same,TGI,[10],> 16500 nM
same,GI50,[11],1210 nM
same,TGI,[11],5990 nM
same,GI50,[12],> 16500 nM
same,TGI,[12],> 16500 nM
same,GI50,[13],509 nM
same,TGI,[13],> 16500 nM
same,GI50,[14],762 nM
same,TGI,[14],> 16500 nM
same,GI50,[15],850 nM
same,TGI,[15],> 16500 nM
same,GI50,[16],646 nM
same,TGI,[16],> 16500 nM
same,GI50,[17],7750 nM
same,TGI,[17],> 16500 nM
same,GI50,[18],4870 nM
same,TGI,[18],> 16500 nM
same,GI50,[19],665 nM
same,TGI,[19],> 16500 nM
same,GI50,[20],2740 nM
same,TGI,[20],> 16500 nM
same,GI50,[21],3260 nM
same,TGI,[21],> 16500 nM
same,GI50,[22],627 nM
same,TGI,[22],> 16500 nM
same,GI50,[23],1120 nM
same,TGI,[23],> 16500 nM
same,GI50,[24],6420 nM
same,TGI,[24],> 16500 nM
same,GI50,[25],1200 nM
same,TGI,[25],> 16500 nM
same,GI50,[26],724 nM
same,TGI,[26],> 16500 nM
same,GI50,[27],2300 nM
same,TGI,[27],8660 nM
